Experimental data taken from paper PMC4131897 (Biochemistry, 2014).
Positions count from the first letter of the chain named.

Columns and labels:
Format in all cases: binding
[1] = target: T1, BjPutA (proline utilization A) (Bradyrhizobium diazoefficiens, UniProt Q89E26, D779A); assay: intrinsic tryptophan fluorescence quenching
T1 sequence (Q89E26 1-999 D779A): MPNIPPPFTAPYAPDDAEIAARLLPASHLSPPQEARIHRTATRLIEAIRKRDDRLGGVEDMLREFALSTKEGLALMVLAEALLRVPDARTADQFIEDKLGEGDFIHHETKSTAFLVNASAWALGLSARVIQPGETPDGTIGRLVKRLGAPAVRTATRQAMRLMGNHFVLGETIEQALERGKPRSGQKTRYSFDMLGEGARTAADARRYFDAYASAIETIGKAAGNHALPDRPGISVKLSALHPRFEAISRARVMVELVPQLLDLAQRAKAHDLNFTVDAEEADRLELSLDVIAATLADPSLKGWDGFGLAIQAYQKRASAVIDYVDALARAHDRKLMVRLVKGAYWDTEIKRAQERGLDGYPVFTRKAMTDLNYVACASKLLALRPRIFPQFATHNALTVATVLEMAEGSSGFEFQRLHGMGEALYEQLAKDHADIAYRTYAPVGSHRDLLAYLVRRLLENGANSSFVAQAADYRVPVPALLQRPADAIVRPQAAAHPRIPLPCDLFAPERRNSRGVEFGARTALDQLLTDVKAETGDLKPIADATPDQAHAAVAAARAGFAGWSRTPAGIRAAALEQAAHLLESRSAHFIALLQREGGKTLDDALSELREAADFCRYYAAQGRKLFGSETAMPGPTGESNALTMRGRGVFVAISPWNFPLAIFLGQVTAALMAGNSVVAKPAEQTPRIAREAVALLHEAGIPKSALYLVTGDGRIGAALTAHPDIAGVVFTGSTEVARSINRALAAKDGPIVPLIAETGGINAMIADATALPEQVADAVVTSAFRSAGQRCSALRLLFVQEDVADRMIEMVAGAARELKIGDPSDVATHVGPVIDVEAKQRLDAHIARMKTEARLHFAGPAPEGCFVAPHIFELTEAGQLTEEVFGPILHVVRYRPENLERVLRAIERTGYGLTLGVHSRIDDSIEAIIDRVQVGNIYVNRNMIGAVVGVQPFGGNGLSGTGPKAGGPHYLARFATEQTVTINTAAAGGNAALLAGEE

[2] = target: T2, BjPutA (proline utilization A) (Bradyrhizobium diazoefficiens, UniProt Q89E26); assay: intrinsic tryptophan fluorescence quenching, single-site fit
T2 sequence (Q89E26 1-999): T1 sequence (Q89E26 1-999 D779A) with A779D

[3] = target: T3, BjPutA (proline utilization A) (Bradyrhizobium diazoefficiens, UniProt Q89E26, D779W); assay: intrinsic tryptophan fluorescence quenching
T3 sequence (Q89E26 1-999 D779W): T1 sequence (Q89E26 1-999 D779A) with A779W

With NC(=O)c1ccc[n+]([C@@H]2O[C@H](COP(=O)(O)OP(=O)(O)OC[C@H]3O[C@@H](n4cnc5c(N)ncnc54)[C@H](O)[C@@H]3O)[C@@H](O)[C@H]2O)c1 [NAD^+] the Kd [1] was 0.64 ± 0.05 µM, the Kd [2] was 0.6 ± 0.04 µM and the Kd [3] was 0.78 ± 0.05 µM.
